From patent US20250082786A1, “FLUORESCENT MARKERS FOR NEUROFIBRILLAR TANGLES AND USES THEREOF” (FONDAZIONE ISTITUTO ITALIANO DI TECNOLOGIA, priority 2021, published 2025)

Experiments:
[1] = system: intracellular TAU aggregates in human iPSC-derived retinal ganglion cells; assay: Probe staining of hiPSC-derived retinal ganglion cells, colocalization with anti-T22 and anti-AT8 antibodies; type: cell-based; settings: 100 μM probe, 30 minutes at 37° C., retinal ganglion cells at 30 days in vitro
Protocol: FIG. 4. (A) Representative binarized fluorescence image showing human iPSC-derived retinal ganglion cells at 30 days in vitro after incubation with BT1 (100 μM) for 30 minutes at 37° C. and staining with anti-T22 and anti-AT8 antibodies. • (B) Representative binarized fluorescence image showing human iPSC-derived retinal ganglion cells at 30 days in vitro after incubation with TAU1 (100 μM) for 30 minutes at 37° C. and staining with anti-T22 and anti-AT8 antibodies. • (C) Fluorescence composite of the above representative images. The fluorescent image of BT1 was obtained using excitation at 520 nm with a 555/15 nm filter in detection; TAU1 was obtained using excitation at 470 nm with a 510/5 nm filter in detection. […] Cell nuclei were stained with DAPI. • (D) The probe specificity is calculated as the ratio between the antibody intensity within the area covered by BT1 or TAU1 out of the total antibody intensity (n=3), as determined using Image J. Images were acquired at the FV10i confocal microscope using a 60× magnification.
The differentiation protocol was a revisited version of Sluch V. et al, 2017 with minor modifications. Human iPSCs were dissociated to single cells with 1× Accutase (Merck Life science) and plated on growth factor-reduced Matrigel coated plates at a density of 1000 cells/mm2 in mTeSR Plus supplemented with 10 μM Rock-inhibitor Y-27632 (Peprotech). […]

[2] = system: intracellular TAU aggregates in human iPSC-derived cortical neurons; assay: Probe staining of hiPSC-derived cortical neurons, colocalization with anti-T22 and anti-AT8 antibodies; type: cell-based; settings: 100 μM probe, 30 minutes at 37° C., cortical neurons at 30 days in vitro
Protocol: FIG. 3. (A) Representative binarized fluorescence image showing human iPSC-derived cortical neurons at 30 days in vitro after incubation with BT1 (100 μM) for 30 minutes at 37° C. and staining with anti-T22 and anti-AT8 antibodies. • (B) Representative binarized fluorescence image showing human iPSC-derived cortical neurons at 30 days in vitro after incubation with TAU1 (100 μM) for 30 minutes at 37° C. and staining with anti-T22 and anti-AT8 antibodies. • (C) Fluorescence composite of the above representative images. […] (D) The probe specificity is calculated as the ratio between the antibody intensity within the area covered by BT1 or TAU1 out of the total antibody intensity (n=3), as determined using Image J. Images were acquired at the FV10i confocal microscope using a […] magnification. […]
Fixed hiPSC-derived cortical neurons and RGCs were permeabilized with 0.2% Triton X-100 (Merck Life Science) in 1×TBS and incubated for 1 hour in blocking solution containing 1×TBS, 0.2% Triton X-100, and 5% goat serum (Merck Life Science). […] Fluorescence intensity per field of view was determined using the Software Image J.
The ability of the BT1 probe to stain specifically intracellular TAU aggregates was determined as a function of the antibody fluorescent signal detected within the binarized probe signal.

For `CC1=CC(/C=C/c2ccc(/C=C/c3ccc(N(C)C)cc3)cc2)=[N+]2C1=Cc1cccn1[B-]2(F)F` [BT1, 3-((E)-4-((E)-4-(dimethylamino)styryl)styryl)-5,5-difluoro-1-methyl-5H-dipyrrolo[1,2-c:2′,1′-f][1,3,2]diazaborinin-4-ium-5-uide], which “Ability to detect phosphorylated (AT8-positive) aggregates” value [1] is on record?
The value was “higher ability to detect phosphorylated aggregates when compared to the TAU1 probe”.

And the “Colocalization of probe signal with AT8 versus T22 antibody signal” value [1]?
The value was “higher colocalization with AT8 signal in respect to T22”.

And the “Ability to detect phosphorylated (AT8-positive) aggregates” value [2]?
The value was “higher ability to detect phosphorylated aggregates when compared to the TAU1 probe”.

What about the “Colocalization of probe signal with AT8 versus T22 antibody signal” value [2] of the same compound?
The value was “higher colocalization with AT8 signal in respect to T22”.
